# In US20100280975A1, “SYSTEMS FOR CLINICAL TRIALS” (WisTa Laboratories Ltd., priority 2007, published 2010):
# Where “and” joins values, the source holds several entries; their conditions need not be identical. Equal values may be shown once.
# What was measured:
# [1] = system: CDR-moderate subjects; assay: rember™ study: NPI (Neuropsychiatric Inventory) over 50 weeks; assay type: in vivo, human; settings: vs placebo-low arm
# [2] = system: mild and moderate dementia of the Alzheimer type; assay: rember™ Phase 2 study: ADAS-cog change over 24 weeks; settings: for Estimate, ADAS-cog change vs placebo, LM (ANCOVA) analysis / Estimate, change in ADAS-cog score vs intercept, least squares / Estimate, change in ADAS-cog score vs intercept, mixed effects / Estimate, change in ADAS-cog score vs intercept (placebo), linear least squares / Estimate, change in ADAS-cog score vs intercept (placebo), linear mixed effects: ITT/LOCF
# [3] = with interaction term, week 24, CDR-mild, 30 mg tid
# [4] = with interaction term, week 24, CDR-mild, 60 mg tid
# [5] = with interaction term, week 24, CDR-mild, low (100 mg) tid
# [6] = with interaction term, week 24, CDR-moderate, 30 mg tid
# [7] = with interaction term, week 24, CDR-moderate, 60 mg tid
# [8] = with interaction term, week 24, CDR-moderate, low (100 mg) tid
# [9] = without interaction term, week 24, 30 mg tid
# [10] = without interaction term, week 24, 60 mg tid
# [11] = without interaction term, week 24, low (100 mg) tid
# [12] = ITT/OC, CDR-moderates, mixed-effects model, low (100 mg) tid
# [13] = ITT/OC, with interaction term, week 24, CDR-mild, 30 mg tid
# [14] = ITT/OC, with interaction term, week 24, CDR-mild, 60 mg tid
# [15] = ITT/OC, with interaction term, week 24, CDR-mild, low (100 mg) tid
# [16] = ITT/OC, with interaction term, week 24, CDR-moderate, 30 mg tid
# [17] = ITT/OC, with interaction term, week 24, CDR-moderate, 60 mg tid
structure (smiles),measurement,setting,value
"CN(C)c1ccc2nc3ccc(=[N+](C)C)cc-3sc2c1 [rember™, methylthioninium chloride]","NPI carer-distress scale, best effect size over 50 weeks",[1],−4.6 units
same,"NPI patient-disturbance scale, best effect size over 50 weeks",[1],−9.2 units
same,effect size in the entire ITT population of mild and moderate AD,"[2]; 60 mg tid, OC and LOCF analyses, 24 weeks, pooled CDR-mild and CDR-moderate",−1.0 to −1.2 ADAS-cog units
same,"Estimate, ADAS-cog change vs placebo, LM (ANCOVA) analysis","[2]; with interaction term, 24-week time-point, CDR-mild, 60 mg tid",−0.20 ADAS-cog units
same,"Estimate, ADAS-cog change vs placebo, LM (ANCOVA) analysis","[2]; with interaction term, 24-week time-point, CDR-mild, low (100 mg) tid",−0.79 ADAS-cog units
same,"Estimate, ADAS-cog change vs placebo, LM (ANCOVA) analysis","[2]; with interaction term, 24-week time-point, CDR-moderate, 30 mg tid",−3.00 ADAS-cog units
same,"Estimate, ADAS-cog change vs placebo, LM (ANCOVA) analysis","[2]; with interaction term, 24-week time-point, CDR-moderate, low (100 mg) tid",−0.40 ADAS-cog units
same,"Estimate, change in ADAS-cog score vs intercept, least squares",[2]; [3],0.46 ADAS-cog units
same,"Estimate, change in ADAS-cog score vs intercept, mixed effects",[2]; [3],0.46 ADAS-cog units
same,"Estimate, change in ADAS-cog score vs intercept, least squares",[2]; [4],−0.73 ADAS-cog units
same,"Estimate, change in ADAS-cog score vs intercept, mixed effects",[2]; [4],−0.73 ADAS-cog units
same,"Estimate, change in ADAS-cog score vs intercept, least squares",[2]; [5],−0.18 ADAS-cog units
same,"Estimate, change in ADAS-cog score vs intercept, mixed effects",[2]; [5],−0.18 ADAS-cog units
same,"Estimate, change in ADAS-cog score vs intercept, least squares",[2]; [6],−1.05 ADAS-cog units
same,"Estimate, change in ADAS-cog score vs intercept, mixed effects",[2]; [6],−1.05 ADAS-cog units
same,"Estimate, change in ADAS-cog score vs intercept, least squares",[2]; [7],−3.70 ADAS-cog units
same,"Estimate, change in ADAS-cog score vs intercept, mixed effects",[2]; [7],−3.70 ADAS-cog units
same,"Estimate, change in ADAS-cog score vs intercept, least squares",[2]; [8],1.06 ADAS-cog units
same,"Estimate, change in ADAS-cog score vs intercept, mixed effects",[2]; [8],1.06 ADAS-cog units
same,"Estimate, ADAS-cog change vs placebo, LM (ANCOVA) analysis","[2]; without interaction term, 24-week assessment data only, 30 mg tid",−0.04 ADAS-cog units
same,"Estimate, ADAS-cog change vs placebo, LM (ANCOVA) analysis","[2]; without interaction term, 24-week assessment data only, low (100 mg) tid",−0.78 ADAS-cog units
same,"Estimate, change in ADAS-cog score vs intercept (placebo), linear least squares",[2]; [9],0.04 ADAS-cog units
same,"Estimate, change in ADAS-cog score vs intercept (placebo), linear mixed effects",[2]; [9],0.04 ADAS-cog units
same,"Estimate, change in ADAS-cog score vs intercept (placebo), linear least squares",[2]; [10],−1.18 ADAS-cog units
same,"Estimate, change in ADAS-cog score vs intercept (placebo), linear mixed effects",[2]; [10],−1.18 ADAS-cog units
same,"Estimate, change in ADAS-cog score vs intercept (placebo), linear least squares",[2]; [11],−0.03 ADAS-cog units
same,"Estimate, change in ADAS-cog score vs intercept (placebo), linear mixed effects",[2]; [11],−0.03 ADAS-cog units
same,ADAS-cog change from baseline at 24 weeks,"[2]; ITT/OC, CDR-moderates, mixed-effects model, 30 mg tid",1.03 ADAS-cog units
same,ADAS-cog change from baseline at 24 weeks,"[2]; ITT/OC, CDR-moderates, mixed-effects model, 60 mg tid",−0.36 ADAS-cog units
same,ADAS-cog change from baseline at 24 weeks,[2]; [12],4.6 ADAS-cog units and 4.63 ADAS-cog units
same,ADAS-cog effect size at 24 weeks (vs placebo),[2]; [12],−0.42 ADAS-cog units
same,"Estimate, change in ADAS-cog score vs intercept, linear least squares",[2]; [13],0.43 ADAS-cog units
same,"Estimate, change in ADAS-cog score vs intercept, linear mixed effects",[2]; [13],0.33 ADAS-cog units
same,"Estimate, change in ADAS-cog score vs intercept, linear least squares",[2]; [14],−0.66 ADAS-cog units
same,"Estimate, change in ADAS-cog score vs intercept, linear mixed effects",[2]; [14],−0.77 ADAS-cog units
same,"Estimate, change in ADAS-cog score vs intercept, linear least squares",[2]; [15],−0.05 ADAS-cog units
same,"Estimate, change in ADAS-cog score vs intercept, linear mixed effects",[2]; [15],−0.21 ADAS-cog units
same,"Estimate, change in ADAS-cog score vs intercept, linear least squares",[2]; [16],1.11 ADAS-cog units
same,"Estimate, change in ADAS-cog score vs intercept, linear mixed effects",[2]; [16],−1.09 ADAS-cog units
same,"Estimate, change in ADAS-cog score vs intercept, linear least squares",[2]; [17],−2.74 ADAS-cog units
same,"Estimate, change in ADAS-cog score vs intercept, linear mixed effects",[2]; [17],−3.23 ADAS-cog units
same,"Estimate, change in ADAS-cog score vs intercept, linear least squares","[2]; ITT/OC, with interaction term, week 24, CDR-moderate, low (100 mg) tid",0.99 ADAS-cog units
